Measured values published in ChEMBL document CHEMBL1201862, “PubChem BioAssay data set” (2004).
Active and inactive are the calls of the source.

Assays:
Keap1/Nrf2 = Keap1/Nrf2 (Homo sapiens, UniProt Q14145); assay: Keap1-Nrf2 protein-protein interaction inhibitors, dose response, biochemical, fluorescence polarization, cherry-picked samples (AID 588683)
[1] = Luminescence Cell-Based Dose Response HTS to Identify Activators of Luciferase Translation or Activity in H4 […] Cells. [Related pubchem assays: 1829 (Project Summary), 1814 (Primary HTS)]; type: functional
H4 = assay: Luminescence Cell-Based Dose Response HTS to Identify Activators of 5'UTR Stem-Loop Driven Prion Protein mRNA Translation in H4 Neuroglioblastoma Cells. [Related pubchem assays: 1829 (Project Summary), 1814 (Primary HTS)]; type: functional; settings: Homo sapiens
[2] = Luminescence Cell-Based Dose Confirmation HTS to Identify Activators of 5'UTR Stem-Loop Driven Alpha-Synuclein mRNA Translation in H4 Neuroglioblastoma Cells. [Related pubchem assays: 1829 (Project Summary), 1814 (Primary HTS)]; type: functional
[3] = molecular target: T1, Corticotropin-releasing factor receptor 2/Corticotropin-releasing factor-binding protein (Homo sapiens, UniProt P24387+Q13324); assay: activators of CRF receptor 2 with binding protein – uHTS hits, confirmation (AID 602473); type: functional; settings: read-out: EC50_Mean
T1 sequence (Q13324 whole entry): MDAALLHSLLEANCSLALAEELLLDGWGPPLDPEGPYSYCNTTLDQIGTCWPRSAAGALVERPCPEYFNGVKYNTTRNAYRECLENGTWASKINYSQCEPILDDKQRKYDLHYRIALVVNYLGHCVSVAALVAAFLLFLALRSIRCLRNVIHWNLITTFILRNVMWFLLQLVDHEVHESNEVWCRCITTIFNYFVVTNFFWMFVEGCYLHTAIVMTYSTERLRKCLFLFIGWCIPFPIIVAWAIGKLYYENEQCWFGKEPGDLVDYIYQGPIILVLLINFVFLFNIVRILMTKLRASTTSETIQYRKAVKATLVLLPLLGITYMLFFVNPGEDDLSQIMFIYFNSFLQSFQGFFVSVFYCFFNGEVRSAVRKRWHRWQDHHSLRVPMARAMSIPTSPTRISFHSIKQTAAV
T1 sequence (P24387 whole entry): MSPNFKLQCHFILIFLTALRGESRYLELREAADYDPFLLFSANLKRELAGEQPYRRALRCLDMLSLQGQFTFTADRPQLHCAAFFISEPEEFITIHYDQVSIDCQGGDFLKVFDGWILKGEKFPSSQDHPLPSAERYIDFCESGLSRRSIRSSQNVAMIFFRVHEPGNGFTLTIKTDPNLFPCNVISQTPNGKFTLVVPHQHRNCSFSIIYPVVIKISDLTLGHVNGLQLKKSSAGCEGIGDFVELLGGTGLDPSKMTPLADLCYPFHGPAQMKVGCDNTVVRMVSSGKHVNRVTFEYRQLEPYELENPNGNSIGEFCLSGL

[4] = Luminescence Cell-Based Dose Response HTS to Identify Inhibitors of 5'UTR Stem-Loop Driven Prion Protein mRNA Translation in H4 Neuroglioblastoma Cells. [Related pubchem assays: 1827 (Project Summary), 1813 (Primary HTS)]; type: functional
INS1 = assay: beta cell apoptosis inhibitors, cytokine rescue, dose response, luminescence, retest (AID 449756); type: functional, cell-based; settings: Rattus norvegicus;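 further: cell death triggered by IL-1 beta plus TNF-alpha plus IFN-gamma mixture; protective hits raise ATP signal compared with cytokine alone wells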
Paired box protein Pax-8 = Paired box protein Pax-8 (Homo sapiens, UniProt Q06710); assay: inhibitors of PAX8-driven TPO luciferase reporter, dose response, RMG-I cells, cherry-pick (AID 687027); type: functional, cell-based;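 further: luciferase reporter driven by Pax8 target thyroperoxidase promoter measured by SteadyGlo luminescence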
Sequence of Paired box protein Pax-8 (Q06710 whole entry): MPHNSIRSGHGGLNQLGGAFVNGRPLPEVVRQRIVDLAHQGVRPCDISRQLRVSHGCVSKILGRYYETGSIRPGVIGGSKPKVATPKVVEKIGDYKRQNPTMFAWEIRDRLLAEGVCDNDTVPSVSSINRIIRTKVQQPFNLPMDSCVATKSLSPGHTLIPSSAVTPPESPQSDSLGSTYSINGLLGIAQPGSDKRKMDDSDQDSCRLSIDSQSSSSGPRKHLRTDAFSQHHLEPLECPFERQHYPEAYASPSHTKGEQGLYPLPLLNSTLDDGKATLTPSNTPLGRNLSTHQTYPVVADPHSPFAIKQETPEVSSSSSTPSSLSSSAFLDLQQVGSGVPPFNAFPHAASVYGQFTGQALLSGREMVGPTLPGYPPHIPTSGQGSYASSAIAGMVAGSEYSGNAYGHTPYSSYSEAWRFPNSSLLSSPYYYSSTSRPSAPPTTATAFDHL

[5] = molecular target: T2, Delta-type opioid receptor (Homo sapiens, UniProt P41143); assay: HTS Image-Based Screen for Agonists of the DOR Receptor. [Related pubchem assays (depositor defined):AID1777, AID1786, AID2133]; type: functional
T2 sequence (P41143 whole entry): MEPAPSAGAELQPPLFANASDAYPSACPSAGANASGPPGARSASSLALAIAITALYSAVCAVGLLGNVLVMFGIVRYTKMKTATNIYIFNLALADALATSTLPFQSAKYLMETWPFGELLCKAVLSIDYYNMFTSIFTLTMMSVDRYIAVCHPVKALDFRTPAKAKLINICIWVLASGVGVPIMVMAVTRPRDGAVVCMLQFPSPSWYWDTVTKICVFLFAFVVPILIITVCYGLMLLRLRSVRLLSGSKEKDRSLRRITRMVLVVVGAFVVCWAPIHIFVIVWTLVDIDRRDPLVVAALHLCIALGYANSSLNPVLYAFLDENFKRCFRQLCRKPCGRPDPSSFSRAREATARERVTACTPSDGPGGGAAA

[6] = control 3'UTR Renilla luciferase suppression, dose response, counter-screen for Shn3 inhibitor project, cell-based, Clone20-Shn3RL, cherry-picked (AID 624133); type: functional
BJ [7] = assay: cytotoxicity toward BJ-TERT fibroblasts, dose response, cell-based, RAS-independent, luminescence (AID 1933); type: functional; settings: Homo sapiens
Beta-galactosidase [8] = molecular target: T3, Beta-galactosidase (Escherichia coli, UniProt Q8VNN2); type: functional
T3 sequence (Q8VNN2 whole entry): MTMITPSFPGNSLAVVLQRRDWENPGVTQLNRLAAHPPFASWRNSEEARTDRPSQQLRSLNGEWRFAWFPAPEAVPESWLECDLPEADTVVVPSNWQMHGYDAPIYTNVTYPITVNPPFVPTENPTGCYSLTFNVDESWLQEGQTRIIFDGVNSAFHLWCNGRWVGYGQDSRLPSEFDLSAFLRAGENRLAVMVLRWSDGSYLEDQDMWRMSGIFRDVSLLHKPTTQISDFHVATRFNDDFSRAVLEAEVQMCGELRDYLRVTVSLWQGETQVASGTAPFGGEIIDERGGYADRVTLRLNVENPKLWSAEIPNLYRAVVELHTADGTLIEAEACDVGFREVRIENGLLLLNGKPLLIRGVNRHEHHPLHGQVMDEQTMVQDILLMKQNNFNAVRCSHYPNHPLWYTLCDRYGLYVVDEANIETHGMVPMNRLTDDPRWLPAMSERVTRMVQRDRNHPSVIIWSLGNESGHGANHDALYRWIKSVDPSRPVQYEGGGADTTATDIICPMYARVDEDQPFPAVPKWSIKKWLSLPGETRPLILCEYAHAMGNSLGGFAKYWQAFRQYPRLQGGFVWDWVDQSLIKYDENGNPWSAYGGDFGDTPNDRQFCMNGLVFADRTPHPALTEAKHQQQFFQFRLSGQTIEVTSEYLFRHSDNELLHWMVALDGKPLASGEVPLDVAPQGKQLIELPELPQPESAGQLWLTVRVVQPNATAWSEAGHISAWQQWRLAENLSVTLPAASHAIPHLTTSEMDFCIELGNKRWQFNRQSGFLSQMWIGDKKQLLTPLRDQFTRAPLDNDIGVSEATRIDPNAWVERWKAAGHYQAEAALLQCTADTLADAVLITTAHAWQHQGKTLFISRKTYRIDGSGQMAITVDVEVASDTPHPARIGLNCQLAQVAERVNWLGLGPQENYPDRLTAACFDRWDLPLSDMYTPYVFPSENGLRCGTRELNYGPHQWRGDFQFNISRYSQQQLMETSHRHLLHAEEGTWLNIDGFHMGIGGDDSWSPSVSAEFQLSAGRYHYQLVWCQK

[9] = non-specific cell cytotoxicity, dose response, cytotoxicity control for PAX8 inhibitor project, plate reader, dry powder samples (AID 743021); type: functional, cell-based
Mu-type opioid receptor = Mu-type opioid receptor (Homo sapiens, UniProt P35372); assay: HTS Image-Based Screen for Agonists of the MOR Receptor. [Related pubchem assays (depositor defined):AID1777, AID1785, AID1786, AID2133]; type: functional;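 further: imaging of beta-arrestin GFP recruitment into spots after receptor activation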
Sequence of Mu-type opioid receptor (P35372 whole entry): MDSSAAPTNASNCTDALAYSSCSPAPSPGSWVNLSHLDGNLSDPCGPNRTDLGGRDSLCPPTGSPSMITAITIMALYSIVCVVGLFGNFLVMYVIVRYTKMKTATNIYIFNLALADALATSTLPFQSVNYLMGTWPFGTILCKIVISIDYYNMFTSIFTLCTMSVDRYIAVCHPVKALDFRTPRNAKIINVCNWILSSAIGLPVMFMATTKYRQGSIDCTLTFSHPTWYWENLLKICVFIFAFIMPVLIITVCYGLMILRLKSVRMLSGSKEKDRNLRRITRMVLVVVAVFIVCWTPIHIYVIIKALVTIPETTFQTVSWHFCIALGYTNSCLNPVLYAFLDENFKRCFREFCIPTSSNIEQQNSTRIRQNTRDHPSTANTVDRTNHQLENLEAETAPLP

cells = type: functional
[10] = cytotoxicity in HEK-293T cells, dose response, cytotoxicity control for TCR NF-kB inhibitor project, luminescence, T-cell screen hits (AID 489026); type: functional, cell-based;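 further: cells exposed to compound about 14 hours before the viability readout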
[11] = molecular target: T4, Type-1 angiotensin II receptor (Homo sapiens, UniProt P30556); assay: AT1 receptor antagonists, dose response, selectivity assay for APJ receptor antagonist project, cell-based, uHTS hits (AID 463214); type: functional;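 further: antagonist potency against angiotensin II stimulated AT1 response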
T4 sequence (P30556 whole entry): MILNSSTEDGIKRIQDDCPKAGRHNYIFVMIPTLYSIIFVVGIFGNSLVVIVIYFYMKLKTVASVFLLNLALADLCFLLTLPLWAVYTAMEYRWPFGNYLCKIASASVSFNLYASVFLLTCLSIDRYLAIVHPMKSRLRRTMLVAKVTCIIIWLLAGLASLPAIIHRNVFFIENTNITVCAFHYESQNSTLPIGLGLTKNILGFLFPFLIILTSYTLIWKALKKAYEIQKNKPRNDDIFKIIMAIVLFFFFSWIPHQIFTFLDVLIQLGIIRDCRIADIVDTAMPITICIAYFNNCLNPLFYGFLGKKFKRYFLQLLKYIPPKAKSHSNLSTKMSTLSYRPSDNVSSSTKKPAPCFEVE

[12] = inhibitors of SNCA 5'UTR-driven reporter translation, confirmation, H4 neuroglioma cells, luminescence (AID 1988); type: functional, cell-based
[13] = inhibitors of firefly luciferase expression or activity, dose response, H4 neuroglioma cells, luminescence (AID 1990); type: functional, cell-based
[14] = THP-1 cell cytotoxicity, dose response, cytotoxicity control for non-replicating M. tuberculosis project (AID 489025); type: functional
[15] = cytotoxicity toward DRD oncogenic fibroblasts, dose response, cell-based, non-viral oncogenic, luminescence (AID 1934); type: functional; settings: Homo sapiens
[16] = molecular target: T5, Kappa-type opioid receptor (Homo sapiens, UniProt P41145); type: functional
T5 sequence (P41145 whole entry): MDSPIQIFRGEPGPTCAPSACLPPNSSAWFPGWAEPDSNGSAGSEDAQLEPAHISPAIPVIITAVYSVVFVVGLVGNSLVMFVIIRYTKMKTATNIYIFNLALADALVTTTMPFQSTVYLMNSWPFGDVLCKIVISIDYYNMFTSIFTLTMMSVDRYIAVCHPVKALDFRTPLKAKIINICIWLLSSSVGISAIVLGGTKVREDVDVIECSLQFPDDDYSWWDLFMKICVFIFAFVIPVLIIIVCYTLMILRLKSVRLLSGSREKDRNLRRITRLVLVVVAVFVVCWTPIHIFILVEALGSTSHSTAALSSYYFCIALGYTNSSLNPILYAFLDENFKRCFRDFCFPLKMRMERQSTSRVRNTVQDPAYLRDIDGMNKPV

BJ [17] = assay: cytotoxicity toward BJ-TERT-LT-ST fibroblasts, dose response, cell-based, RAS-independent, luminescence (AID 1935); type: functional; settings: Homo sapiens;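 further: BJ fibroblasts immortalized with TERT plus LT and ST oncogenes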
Protein RecA = molecular target: T6, Protein RecA (Mycobacterium tuberculosis, UniProt P9WHJ3); assay: Fluorescence Cell-Free Homogeneous Dose Retest to Identify Inhibitors of RecA-Intein Splicing Activity. [Related pubchem assays (depositor defined):AID2097, AID2223, AID489010, AID492950]; type: functional
T6 sequence (P9WHJ3 whole entry): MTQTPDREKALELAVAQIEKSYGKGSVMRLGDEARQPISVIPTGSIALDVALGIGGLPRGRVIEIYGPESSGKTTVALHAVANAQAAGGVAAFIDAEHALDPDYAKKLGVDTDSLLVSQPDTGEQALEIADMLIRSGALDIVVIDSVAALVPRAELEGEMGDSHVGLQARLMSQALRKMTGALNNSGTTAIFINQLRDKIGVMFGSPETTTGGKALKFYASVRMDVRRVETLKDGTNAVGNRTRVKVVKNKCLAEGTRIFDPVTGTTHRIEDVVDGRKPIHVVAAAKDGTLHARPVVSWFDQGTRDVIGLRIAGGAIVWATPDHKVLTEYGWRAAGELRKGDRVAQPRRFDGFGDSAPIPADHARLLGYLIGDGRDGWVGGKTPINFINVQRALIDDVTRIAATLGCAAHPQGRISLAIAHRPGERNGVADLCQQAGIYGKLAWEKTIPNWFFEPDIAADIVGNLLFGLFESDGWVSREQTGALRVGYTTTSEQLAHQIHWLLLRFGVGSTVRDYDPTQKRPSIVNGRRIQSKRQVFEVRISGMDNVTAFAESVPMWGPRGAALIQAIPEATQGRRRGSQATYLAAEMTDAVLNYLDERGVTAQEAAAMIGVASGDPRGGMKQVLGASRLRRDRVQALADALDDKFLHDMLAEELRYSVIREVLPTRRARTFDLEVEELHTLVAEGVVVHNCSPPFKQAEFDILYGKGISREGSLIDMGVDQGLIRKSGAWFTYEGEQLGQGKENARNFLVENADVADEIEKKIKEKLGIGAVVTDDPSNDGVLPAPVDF

[18] = molecular target: T5, Kappa-type opioid receptor; type: functional; remark: listed apart in the source
Beta-galactosidase [19] = molecular target: T3, Beta-galactosidase; assay: PubChem AID 485352; type: functional
BJ [20] = assay: cells; type: functional, cell-based; settings: Homo sapiens
[21] = HepG2 cell cytotoxicity, dose response, cytotoxicity control for Shn3 inhibitor project, CellTiter-Glo, cherry-picked (AID 624134); type: functional, cell-based
[22] = Shn3 3'UTR reporter inhibitors, dose response, cell-based, Clone20 osteoblasts, firefly luciferase, cherry-picked (AID 624132); type: functional;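 further: firefly luciferase luminescence from reporter carrying the Shn3 3'UTR in osteoblasts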
[23] = molecular target: T7, Replicative DNA helicase DnaB (Mycobacterium tuberculosis, UniProt P9WMR3); assay: DnaB intein splicing inhibitors, dose response, biochemical, cell-free fluorescence (AID 449749); type: functional
T7 sequence (P9WMR3 whole entry): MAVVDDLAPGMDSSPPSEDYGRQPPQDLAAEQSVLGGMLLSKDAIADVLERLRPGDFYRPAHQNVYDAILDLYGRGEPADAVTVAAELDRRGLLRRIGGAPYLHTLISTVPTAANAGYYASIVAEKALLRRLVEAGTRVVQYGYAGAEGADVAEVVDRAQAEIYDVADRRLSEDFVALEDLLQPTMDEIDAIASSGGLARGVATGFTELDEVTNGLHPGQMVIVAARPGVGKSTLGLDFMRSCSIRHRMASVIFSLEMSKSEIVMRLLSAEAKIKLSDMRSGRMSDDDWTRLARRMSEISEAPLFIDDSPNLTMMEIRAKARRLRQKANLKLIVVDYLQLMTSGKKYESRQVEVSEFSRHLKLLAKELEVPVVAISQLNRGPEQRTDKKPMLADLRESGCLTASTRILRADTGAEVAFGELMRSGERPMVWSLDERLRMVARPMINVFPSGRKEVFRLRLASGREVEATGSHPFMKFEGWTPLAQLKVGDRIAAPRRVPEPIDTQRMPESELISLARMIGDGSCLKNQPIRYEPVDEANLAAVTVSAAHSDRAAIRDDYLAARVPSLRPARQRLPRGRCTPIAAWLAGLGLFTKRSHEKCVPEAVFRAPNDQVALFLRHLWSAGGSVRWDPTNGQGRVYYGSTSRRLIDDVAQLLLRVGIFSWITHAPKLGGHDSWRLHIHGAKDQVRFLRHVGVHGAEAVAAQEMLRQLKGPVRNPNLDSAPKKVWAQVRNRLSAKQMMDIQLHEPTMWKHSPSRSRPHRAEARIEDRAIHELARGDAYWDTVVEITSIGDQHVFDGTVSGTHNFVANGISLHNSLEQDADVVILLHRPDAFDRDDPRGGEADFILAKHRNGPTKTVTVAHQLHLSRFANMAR

[24] = molecular target: T2, Delta-type opioid receptor; assay: HTS Image-Based Screen for Antagonists of the DOR Receptor. [Related pubchem assays (depositor defined):AID1777, AID1785, AID1786, AID2133]; type: functional

Sequence of Keap1/Nrf2 (Q16236 whole entry): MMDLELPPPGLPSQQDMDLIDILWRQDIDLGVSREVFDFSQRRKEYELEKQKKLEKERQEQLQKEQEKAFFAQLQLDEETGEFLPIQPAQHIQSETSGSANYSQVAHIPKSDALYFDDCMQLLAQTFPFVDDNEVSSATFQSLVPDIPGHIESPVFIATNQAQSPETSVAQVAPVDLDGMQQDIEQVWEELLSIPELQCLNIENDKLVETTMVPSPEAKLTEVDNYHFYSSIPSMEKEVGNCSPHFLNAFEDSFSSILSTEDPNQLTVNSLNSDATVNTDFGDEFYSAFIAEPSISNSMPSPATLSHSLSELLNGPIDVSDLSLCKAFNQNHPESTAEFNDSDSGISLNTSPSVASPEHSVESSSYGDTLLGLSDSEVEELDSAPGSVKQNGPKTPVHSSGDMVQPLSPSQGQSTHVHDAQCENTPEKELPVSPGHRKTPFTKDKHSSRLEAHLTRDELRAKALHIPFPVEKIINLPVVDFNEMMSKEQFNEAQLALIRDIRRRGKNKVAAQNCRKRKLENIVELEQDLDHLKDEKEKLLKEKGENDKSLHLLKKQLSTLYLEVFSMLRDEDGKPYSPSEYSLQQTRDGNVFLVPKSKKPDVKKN
Sequence of Keap1/Nrf2 (Q14145 whole entry): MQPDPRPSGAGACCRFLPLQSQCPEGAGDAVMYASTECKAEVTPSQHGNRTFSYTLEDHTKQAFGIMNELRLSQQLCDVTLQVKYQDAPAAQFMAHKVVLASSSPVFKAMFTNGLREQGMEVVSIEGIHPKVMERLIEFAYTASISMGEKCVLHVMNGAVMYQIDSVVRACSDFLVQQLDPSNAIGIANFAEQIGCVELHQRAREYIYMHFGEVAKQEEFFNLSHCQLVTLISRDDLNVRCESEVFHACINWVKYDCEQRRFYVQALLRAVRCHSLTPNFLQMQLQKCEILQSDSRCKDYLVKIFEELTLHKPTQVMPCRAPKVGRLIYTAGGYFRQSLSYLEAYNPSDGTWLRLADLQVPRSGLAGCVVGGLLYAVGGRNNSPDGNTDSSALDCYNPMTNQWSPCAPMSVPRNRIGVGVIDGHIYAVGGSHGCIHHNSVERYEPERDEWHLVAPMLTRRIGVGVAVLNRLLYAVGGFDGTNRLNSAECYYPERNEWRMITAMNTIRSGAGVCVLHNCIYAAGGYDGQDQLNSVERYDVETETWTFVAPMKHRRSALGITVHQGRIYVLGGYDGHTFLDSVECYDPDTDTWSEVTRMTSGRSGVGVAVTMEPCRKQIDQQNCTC

**Q.** With `CCN1C(=O)NC(=O)/C(=C\c2cn(CC(=O)N3CCCCC3)c3ccccc23)C1=O` as the compound, how does the AC50 (Keap1/Nrf2) read?
**A.** 35.9 µM (active)

**Q.** Which EC50 [1] does the source give for `O=S(=O)([N-]c1nc2ccccc2nc1-[n+]1ccc(-c2ccncc2)cc1)c1ccccc1` here?
**A.** 9.78 µM (active)

**Q.** What about the AC50 (Keap1/Nrf2) of the same compound?
**A.** 31.5 µM (active)

**Q.** And the EC50 (H4)?
**A.** > 120 µM (not active)

**Q.** What about the EC50 [2] of the same compound?
**A.** 55 µM (active)

**Q.** And the EC50 [3]?
**A.** > 53 µM (inactive)

**Q.** What does the source list for `CCS(=O)(=O)c1ncc(Cl)c(C(=O)Nc2ccc(S(=O)(=O)N(C)c3ccccc3)cc2)n1`?
**A.** EC50 [4]: 8.51 µM (active); AC50 (INS1): 5.7 µM (active); AC50 (Paired box protein Pax-8): 5.12 µM (active); EC50 [5]: > 32 µM (inactive); AC50 [6]: 1.91 µM (active); EC50 (BJ [7]): 0.784 µM (active); EC50 (Beta-galactosidase [8]): > 31.5 µM (inactive); AC50 [9]: 21.2 µM (active); EC50 (Mu-type opioid receptor): > 32 µM (inactive); IC50 (cells): > 50 µM (active); IC50 [10]: 59.5 µM (inactive); IC50 [11]: 3.56 µM (active); EC50 [12]: 5.71 µM (active); EC50 [13]: > 120 µM (not active); CC50 [14]: 10.6 µM (active); EC50 [15]: 4.16 µM (active); IC50 [16]: 6.56 µM (active); EC50 (BJ [17]): 5.62 µM (inconclusive); EC50 (Protein RecA): 1 µM (active); IC50 [18]: 4.2 µM; EC50 (Beta-galactosidase [19]): > 40 µM (inactive); EC50 (BJ [20]): 6.38 µM (inconclusive); AC50 [21]: 10.7 µM (active); AC50 [22]: 0.308 µM (active); AC50 [23]: 1.14 µM (active); IC50 [24]: 9.44 µM (active)
